We go through 21 molecules from US10316017B2, “COT modulators and methods of use thereof” (Gilead Sciences, Inc., priority 2015, dated 2019).

The test system of assay [1] is TNFα production in LPS-stimulated human monocytes. Nature of the assay: Cot Monocyte TNFα Cell Based Assay. Particulars: Homo sapiens, Monocyte, read-out: EC50 TNF. An outline of the steps:
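TNFα release quantified by two-antibody TR-FRET, normalised to unstimulated (0%) and LPS-stimulated (100%) wells. Cells got a 1 h compound exposure at 37° C in 0.5% DMSO before 4 h challenge with 50 pg/ml LPS, at 5,000 cells/well.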

In assay [2] the target is T1, human Cot catalytic domain (30-397 amino acids) (Homo sapiens, UniProt P41279).
T1 construct: Purified recombinant human Cot catalytic domain (30-397 amino acids) was purchased from Cama Biosciences; purchased Cama Biosciences (so in the source)
T1 sequence (P41279 30-397): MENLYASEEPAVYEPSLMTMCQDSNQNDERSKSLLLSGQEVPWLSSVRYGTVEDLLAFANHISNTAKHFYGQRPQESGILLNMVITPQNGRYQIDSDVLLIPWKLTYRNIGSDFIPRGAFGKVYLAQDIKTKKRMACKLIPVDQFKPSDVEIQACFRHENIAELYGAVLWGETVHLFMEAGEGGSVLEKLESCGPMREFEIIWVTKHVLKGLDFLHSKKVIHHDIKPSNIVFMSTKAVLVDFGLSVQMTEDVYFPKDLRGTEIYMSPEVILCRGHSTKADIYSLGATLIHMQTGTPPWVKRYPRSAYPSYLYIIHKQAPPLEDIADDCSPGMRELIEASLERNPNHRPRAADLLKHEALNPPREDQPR
Nature of the assay: High Throughput Cot Biochemical Assay (KinEASE TR-FRET). The settings on record: read-out: IC50 HTRF. An outline of the steps:
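TR-FRET (KinEASE) read-out: Eu-labelled phospho-specific antibody binds XL665-tagged STK3 peptide (1 μM) phosphorylated by 5 nM human Cot kinase domain (residues 30-397). Reaction at 400 μM ATP, pH 7.0 MOPS buffer with 10 mM MgOAc, 1 mM DTT and 0.1% DMSO.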
In general terms: In TR-FRET formats the signal depends on donor and acceptor labels being close together.

Setting [3] is: LPS-stimulated human monocytes, TNFα TR-FRET.
[4] abbreviates: Cot KinEASE TR-FRET, 400 μM ATP.
[5] abbreviates: TNFα in LPS-stimulated human monocytes.
The mark [6] stands for this setting: Cot biochemical HTRF (KinEASE TR-FRET) assay.
The mark [7] stands for this setting: Cot KinEASE TR-FRET (HTRF) biochemical assay, 400 μM ATP.

Read-outs that look alike come from different tables or passages of the source. Where only a bound is given, the exact number is not on record here.

For `Cc1c(-c2cn[nH]c2)cccc1[C@H](Nc1cc(C#N)c2ncc(C#N)c(NCC(C)(C)C)c2c1)c1cn(C2(C(F)(F)F)CC2)nn1` [Example 1133, (S)-6-(((2-methyl-3-(1H-pyrazol-4-yl)phenyl)(1-(1-(trifluoromethyl)cyclopropyl)-1H-1,2,3-triazol-4-yl)methyl)amino)-4-(neopentylamino)quinoline-3,8-dicarbonitrile], the EC50 in assay [1] (setting [3]) was found to be 27 nM. The half-inhibitory concentration (IC50) in assay [2] (setting [4]) is 4 nM.
On to `N#Cc1cnc2c(Cl)cc(N[C@@H](c3ccc(Cl)cc3)c3c[nH]nn3)cc2c1Nc1ccc(O)c(Cl)c1` [Example 614, (S)-8-chloro-4-((3-chloro-4-hydroxyphenyl)amino)-6-(((4-chlorophenyl)(1H-1,2,3-triazol-4-yl)methyl)amino)quinoline-3-carbonitrile], for which the concentration for a half-maximal effect (EC50) in assay [1] (setting [5]) turned out to be 1110 nM. For the same molecule, in assay [2] (setting [6]), the half-inhibitory concentration (IC50) worked out at 123 nM.
The like results for `CC(C)(C)N1CCC(n2cc([C@@H](Nc3cc(Cl)c4ncc(C#N)c(NC5CCCC5)c4c3)c3ccc(Cl)cc3)nn2)CC1` [Example 714, (S)-6-(((1-(1-(tert-butyl)piperidin-4-yl)-1H-1,2,3-triazol-4-yl)(4-chlorophenyl)methyl)amino)-8-chloro-4-(cyclopentylamino)quinoline-3-carbonitrile] were, in that order, 1700 nM and 131 nM.
Regarding `CC(C)(C)CNc1c(C#N)cnc2c(Cl)cc(N[C@@H](c3ccccc3)c3cn(C4CCN(C(C)(C)C)CC4)nn3)cc12` [Example 543, (S)-6-(((1-(1-(tert-butyl)piperidin-4-yl)-1H-1,2,3-triazol-4-yl)(phenyl)methyl)amino)-8-chloro-4-(neopentylamino)quinoline-3-carbonitrile], the half-maximal effective concentration (EC50) in assay [1] (setting [5]) amounted to 51 nM. Further, the half-inhibitory concentration (IC50) in assay [2] (setting [6]) turned out to be 7 nM.
The like results for `N#Cc1cnc2c(Cl)cc(N[C@@H](c3cccc(-c4ncco4)c3)c3cn(C4CC4)nn3)cc2c1Nc1cnc(F)c(F)c1` [Example 450, (S)-8-chloro-6-(((1-cyclopropyl-1H-1,2,3-triazol-4-yl)(3-(oxazol-2-yl)phenyl)methyl)amino)-4-((5,6-difluoropyridin-3-yl)amino)quinoline-3-carbonitrile] were, in that order, 305 nM and 3 nM.
As to `Cc1c(C#N)cccc1[C@H](Nc1cc(C#N)c2ncc(C#N)c(NCC(C)(C)C(F)(F)F)c2c1)c1cn(C2(C3CC3)CC2)nn1` [Example 1152, (S)-6-(((1-([1,1'-bi(cyclopropan)]-1-yl)-1H-1,2,3-triazol-4-yl)(3-cyano-2-methylphenyl)methyl)amino)-4-((3,3,3-trifluoro-2,2-dimethylpropyl)amino)quinoline-3,8-dicarbonitrile], the 50% effective concentration (EC50) in assay [1] (setting [3]) came to 49 nM. Also, the concentration for half-maximal inhibition (IC50) in assay [2] (setting [4]) was determined as 3 nM.
On to `COC[C@H](C)Nc1c(C#N)cnc2c(Cl)cc(N[C@@H](c3ccccc3)c3cn(C4CCN(C(C)(C)C)CC4)nn3)cc12` [Example 557, 6-(((S)-(1-(1-(tert-butyl)piperidin-4-yl)-1H-1,2,3-triazol-4-yl)(phenyl)methyl)amino)-8-chloro-4-(((S)-1-methoxypropan-2-yl)amino)quinoline-3-carbonitrile], for which the EC50 in assay [1] (setting [5]) is more than 10000 nM. In addition, the 50% inhibitory concentration (IC50) in assay [2] (setting [6]) turned out to be 999 nM.
As to `N#Cc1cnc2c(Cl)cc(N[C@@H](c3ccccc3)c3cn(C4CCNCC4)nn3)cc2c1Nc1ccc(F)c(Cl)c1` [Example 778, (S)-8-chloro-4-((3-chloro-4-fluorophenyl)amino)-6-((phenyl (1-(piperidin-4-yl)-1H-1,2,3-triazol-4-yl)methyl)amino) quinoline-3-carbonitrile], the EC50 in assay [1] (setting [5]) is 305 nM. Further, the concentration for half-maximal inhibition (IC50) in assay [2] (setting [6]) is 2 nM.
The like results for `CC(C)(C)N1CCC(n2cc([C@@H](Nc3cc(Cl)c4ncc(C#N)c(NN5CCCCCC5)c4c3)c3ccccc3)nn2)CC1` [Example 604, (S)-4-(azepan-1-ylamino)-6-(((1-(1-(tert-butyl)piperidin-4-yl)-1H-1,2,3-triazol-4-yl)(phenyl)methyl)amino)-8-chloroquinoline-3-carbonitrile] were, in that order, 3040 nM and 156 nM.
For `CC(C)(C)N1CCC(n2cc([C@@H](Nc3cc(Cl)c4ncc(C#N)c(NC5C6CC7CC(C6)CC5C7)c4c3)c3ccccc3)nn2)CC1` (stereo partly drawn) [Example 635, 4-(((1S,3S,5S,7S)-adamantan-2-yl)amino)-6-(((S)-(1-(1-(tert-butyl)piperidin-4-yl)-1H-1,2,3-triazol-4-yl)(phenyl)methyl)amino)-8-chloroquinoline-3-carbonitrile] the same measures were 1080 nM and 13 nM.
Regarding `[2H][C@](Nc1cc(F)c2ncc(C#N)c(N[C@H](CCC#N)c3ccccc3)c2c1)(c1cccc(C#N)c1)c1cn(C2CC2)nn1` [Example 164, 4-(((R)-3-cyano-1-phenylpropyl)amino)-6-(((S)-(3-cyanophenyl)(1-cyclopropyl-1H-1,2,3-triazol-4-yl)methyl-d)amino)-8-fluoroquinoline-3-carbonitrile], in assay [1] (setting [5]), the EC50 came to 15 nM. Also, in assay [2] (setting [7]), the IC50 was 1 nM.
Regarding `CC(C)(C)CNc1c(C#N)cnc2c(F)cc(N[C@H](c3cn(C(F)(F)C(N)=O)nn3)c3ccccc3Cl)cc12` [Example 1001, (S)-2-(4-((2-chlorophenyl)((3-cyano-8-fluoro-4-(neopentylamino)quinolin-6-yl)amino)methyl)-1H-1,2,3-triazol-1-yl)-2,2-difluoroacetamide], in assay [1] (setting [3]), the EC50 amounted to 344 nM. In addition, in assay [2] (setting [4]), the half-maximal inhibitory concentration (IC50) turned out to be 22 nM.
With `[2H][C@](Nc1cc(Cl)c2ncc(C#N)c(N[C@H](COC)c3ccccc3)c2c1)(c1ccc(F)cc1)c1cn(C2CC2)nn1` [Example 181, 8-chloro-6-(((1-cyclopropyl-1H-1,2,3-triazol-4-yl)(4-fluorophenyl)methyl-d)amino)-4-(((S)-2-methoxy-1-phenylethyl)amino) quinoline-3-carbonitrile], in assay [1] (setting [5]), the concentration giving a half-maximal response (EC50) was 348 nM. Besides, in assay [2] (setting [7]), the half-maximal inhibitory concentration (IC50) was determined as 28 nM.
In the case of `[2H][C@](Nc1cc(C#N)c2ncc(C#N)c(NCC(C)(C)C)c2c1)(c1cccc(C#N)c1)c1cn(C2(CF)CC2)nn1` [Example 1007, (S)-6-(((3-cyanophenyl)(1-(1-(fluoromethyl)cyclopropyl)-1H-1,2,3-triazol-4-yl)methyl-d)amino)-4-(neopentylamino)quinoline-3,8-dicarbonitrile], the EC50 in assay [1] (setting [3]) came out at 66 nM. For the same molecule, the concentration for half-maximal inhibition (IC50) in assay [2] (setting [4]) worked out at 2 nM.
For `CC(C)(C)N1CCC(n2cc([C@@H](Nc3cc(Cl)c4ncc(C#N)c(NN5CCCCC5)c4c3)c3ccccc3)nn2)CC1` [Example 603, (S)-6-(((1-(1-(tert-butyl)piperidin-4-yl)-1H-1,2,3-triazol-4-yl)(phenyl)methyl)amino)-8-chloro-4-(piperidin-1-ylamino)quinoline-3-carbonitrile], in assay [1] (setting [5]), the EC50 came out at 561 nM. In addition, the IC50 in assay [2] (setting [6]) is 61 nM.
For `N#Cc1cnc2c(Cl)cc(N[C@@H](c3ccccc3)c3cn(C4[C@H]5CNC[C@@H]45)nn3)cc2c1Nc1ccc(F)c(Cl)c1` (stereo partly drawn) [Example 529, 6-(((S)-(1-((1R,5S,6s)-3-azabicyclo[3.1.0]hexan-6-yl)-1H-1,2,3-triazol-4-yl)(phenyl)methyl)amino)-8-chloro-4-((3-chloro-4-fluorophenyl)amino) quinoline-3-carbonitrile], the half-maximal effective concentration (EC50) in assay [1] (setting [5]) stood at 71 nM. In addition, the IC50 in assay [2] (setting [6]) was found to be 2 nM.
`[2H]C(Nc1cc(Cl)c2ncc(C#N)c(NC3[C@H]4CCC[C@@H]34)c2c1)(c1ccc(F)cc1)c1cn(C2CC2)nn1` (stereo in doubt) [Example 117, 4-(((1R,5S)-bicyclo[3.1.0]hexan-6-yl)amino)-8-chloro-6-(((S)-(1-cyclopropyl-1H-1,2,3-triazol-4-yl) (4-fluorophenyl)methyl-d)amino)quinoline-3-carbonitrile]: the EC50 in assay [1] (setting [5]) came to 377 nM. In addition, the half-inhibitory concentration (IC50) in assay [2] (setting [7]) stood at 16 nM.
Consider `[2H][C@](Nc1ccc2ncc(C#N)c(NCC(C)(C)C)c2c1)(c1ccc(F)cc1)c1cn(C2CC2)nn1` [Example 133, 6-(((1-cyclopropyl-1H-1,2,3-triazol-4-yl)(4-fluorophenyl)methyl-d)amino)-4-(neopentylamino) quinoline-3-carbonitrile], for which the EC50 in assay [1] (setting [5]) was determined as 313 nM. In addition, the IC50 in assay [2] (setting [7]) is 21 nM.
For `N#Cc1ccccc1[C@H](Nc1cc(Cl)c2ncc(C#N)c(Nc3cnc(F)c(F)c3)c2c1)c1cn(C2CC2)nn1` [Example 325, (S)-8-chloro-6-(((2-cyanophenyl)(1-cyclopropyl-1H-1,2,3-triazol-4-yl)methyl)amino)-4-((5,6-difluoropyridin-3-yl)amino)quinoline-3-carbonitrile] the same measures were 356 nM and 8 nM.
With `Cn1ccnc1-c1cccc([C@H](Nc2cc(Cl)c3ncc(C#N)c(Nc4ccc(F)c(Cl)c4)c3c2)c2cn(C3CCN(C(C)(C)C)CC3)nn2)c1` [Example 630, (S)-6-(((1-(1-(tert-butyl)piperidin-4-yl)-1H-1,2,3-triazol-4-yl)(3-(1-methyl-1H-imidazol-2-yl)phenyl)methyl)amino)-8-chloro-4-((3-chloro-4-fluorophenyl)amino)quinoline-3-carbonitrile], the EC50 in assay [1] (setting [5]) was 1630 nM. Further, in assay [2] (setting [6]), the 50% inhibitory concentration (IC50) turned out to be 3 nM.
Consider `N#Cc1cnc2c(Cl)cc(N[C@@H](c3ccc(Cl)cc3)c3c[nH]nn3)cc2c1Nc1ccc(OCc2ccccc2)c(Cl)c1` [Example 648, (S)-4-((4-(benzyloxy)-3-chlorophenyl)amino)-8-chloro-6-(((4-chlorophenyl)(1H-1,2,3-triazol-4-yl)methyl)amino)quinoline-3-carbonitrile], for which, in assay [1] (setting [5]), the EC50 came out at 4430 nM. Besides, in assay [2] (setting [6]), the half-maximal inhibitory concentration (IC50) was more than 10000 nM.

A word on the EC50: it is the midpoint of the concentration-response curve. The term IC50 denotes the concentration needed to halve the response being measured.
